# Molecular target: T1, SGLT (Oryctolagus cuniculus, UniProt P11170)
# T1 construct: To prepare brush border membranes from rabbit small intestine, rabbits were sacrificed; from tissue; host or cells: rabbit small intestine mucosa, brush border membrane vesicles (Mg2+ precipitation method)
# T1 sequence (P11170 1-662): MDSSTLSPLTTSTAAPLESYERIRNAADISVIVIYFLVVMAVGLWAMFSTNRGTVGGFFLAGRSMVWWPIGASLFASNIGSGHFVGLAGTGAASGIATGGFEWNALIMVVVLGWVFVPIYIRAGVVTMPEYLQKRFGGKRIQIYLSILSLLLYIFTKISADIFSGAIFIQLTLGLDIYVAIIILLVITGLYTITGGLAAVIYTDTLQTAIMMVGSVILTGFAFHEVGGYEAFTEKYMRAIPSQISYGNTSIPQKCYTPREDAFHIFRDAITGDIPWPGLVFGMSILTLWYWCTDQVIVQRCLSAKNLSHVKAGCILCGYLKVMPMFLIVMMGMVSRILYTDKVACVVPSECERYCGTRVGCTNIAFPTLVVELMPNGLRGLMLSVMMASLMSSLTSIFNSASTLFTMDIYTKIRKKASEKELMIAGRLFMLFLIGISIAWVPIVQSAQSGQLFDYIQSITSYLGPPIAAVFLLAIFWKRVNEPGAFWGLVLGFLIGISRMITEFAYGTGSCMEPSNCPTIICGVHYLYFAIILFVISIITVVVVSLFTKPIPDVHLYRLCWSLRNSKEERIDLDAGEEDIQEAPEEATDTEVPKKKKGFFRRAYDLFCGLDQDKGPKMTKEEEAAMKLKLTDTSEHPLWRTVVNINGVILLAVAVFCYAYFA
# Assay: Glucose uptake by brush border membrane vesicles (transport assay, membrane filtration method)
# Type: biochemical
# Details: uptake of 10 μM [14C]D-glucose into rabbit small intestine brush border membrane vesicles, 30° C., 15 seconds
row,SMILES,IC50 [nM]
1,OCC1OC(Oc2ccccc2Cc2ccccc2)C(O)C(O)C1F (centres unmarked) [Example 2],700
2,"Cc1cc(O)c(C(=O)CCc2ccc3occc3c2)c(OC2OC(CO)C(F)C(O)C2O)c1 (single isomer, unassigned) [Example 4]",1500
3,COc1ccc(Cc2ccccc2OC2OC(CO)C(F)C(O)C2O)cc1 (centres unmarked) [Example 1],500

# The remaining lines, values ahead:
row,IC50 [nM],SMILES
1,400,"Cc1cc(O)c(C(=O)CCc2ccc3occc3c2)c(OC2OC(CO)C(F)C(O)C2O)c1 (single isomer, unassigned) [Example 5]"
2,900,COc1ccc(CCC(=O)c2c(O)cc(C)cc2OC2OC(CO)C(F)C(O)C2O)cc1 (centres unmarked) [Example 7]
